The test system of experiment [1] is N-acetyl-β-D-hexosaminidase (rat intestine). Briefly: Glycosidase inhibition, Table 7. The experiment is classed as biochemical. As to conditions: 1 mg/mL aqueous solution added, 27 °C, run in water. Here is the method: (§1) All enzymes and para-nitrophenyl substrates were purchased from Sigma. Enzymes were assayed at 27 °C in citric acid (0.1M)/disodium hydrogen phosphate (0.2 M) buffers at the optimum pH for the enzyme. The incubation mixture consisted of […] enzyme solution, […] of 1 mg/mL aqueous solution of extract, and […] of the appropriate 5 mM para-nitrophenyl substrate made up in buffer at the optimum pH for the enzyme. The reactions were stopped by the addition of […] 0.4 M glycine (pH 10.4) during the exponential phase of the reaction, which had been determined at the beginning using uninhibited assays in which water replaced the inhibitor. Final absorbances were read at 405 nm using a Versamax microplate reader (Molecular Devices). Assays were carried out in triplicate, and the values given are the means of the three replicates per assay. All reactions run in water.

For experiment [2], the system named is H460 lung carcinoma cells. As to the kind of experiment: Cancer screening, MTT growth inhibition. The experiment is classed as cell-based. As to conditions: 72-h exposure; for inhibition at 25 µM / GI50: Homo sapiens; for inhibition at 25 µM: NCI-H460, 25 µM, read-out: H460 Lung Carcinoma, Percentage (%) Cell Growth Inhibition in response to 25 µM of Drug; for GI50: NCI-H460, dose response, read-out: H460 Lung Carcinoma, GI50 = Concentration (µM) that inhibits cell growth by 50%. Here is the method:
(§2) Two assays were run: the dose screen to ascertain cell growth inhibition in response to 25 µM of drug (on a blue background) and the dose response (GI50) (on a green background). For a discussion of BNCT as a radiotherapeutic modality, a rationalisation is provided here.
(§3) All test agents were prepared as stock solutions (20 mM) in dimethyl sulfoxide (DMSO) and stored at −20 °C. Cell lines used in the study included HT29, (colorectal carcinoma); U87, SJ-G2, (glioblastoma); MCF-7, (breast carcinoma); A2780 (ovarian carcinoma); H460 (lung carcinoma); A431 (skin carcinoma); Du145 (prostate carcinoma); BE2-C (neuroblastoma) and MiaPaCa-2 (pancreatic carcinoma); together with the one non-tumour derived normal breast cell line (MCF10A). All cell lines were incubated in a humidified atmosphere 5% CO2 at 37 °C. The cancer cell lines were maintained in Dulbecco’s modified Eagle’s medium (DMEM; Sigma, Australia) supplemented with foetal bovine serum (10%), sodium pyruvate (10 mM), penicillin (100 IUmL^−1), streptomycin (100 µg mL^−1), and L-glutamine (2 mM).
(§4) Growth inhibition was determined by plating cells in duplicate in medium (100 µL) at a density of 2500–4000 cells per well in 96-well plates. On day 0 (24 h after plating), when the cells are in logarithmic growth, medium (100 µL) with or without the test agent was added to each well. After a 72-h drug exposure, growth inhibitory effects were evaluated using the MTT (3-(4,5-dimethyltiazol-2-yl)-2,5-diphenyltetrazolium bromide) assay and absorbance read at 540 nm. The percentage growth inhibition was calculated at a fixed concentration of 25 µM, based on the difference between the optical density values on day 0 and those at the end of drug exposure. Each data point is the mean ± the standard error of the mean (SEM) calculated from three replicates, which were performed on separate occasions and separate cell line passages.

Experiment [3] relates to MIA-Pa-Ca2 pancreatic carcinoma cells. As to the kind of experiment: Cancer screening, MTT growth inhibition. As to conditions: 72-h exposure; for inhibition at 25 µM / GI50: Homo sapiens; for inhibition at 25 µM: MIA PaCa-2, 25 µM, read-out: MIA-Pa-Ca2 Pancreatic Carcinoma, Percentage (%) Cell Growth Inhibition in response to 25 µM of Drug; for GI50: MIA PaCa-2, dose response, read-out: MIA-Pa-Ca2 Pancreatic Carcinoma, GI50 = Concentration (µM) that inhibits cell growth by 50%. The experiment is classed as cell-based. How it is done: as §2, §3, §4

The next experiment deals with α-D-glucosidase (rice) (Oryza sativa subsp. japonica, UniProt Q653V7). As to the kind of experiment: Glycosidase inhibition, Table 6 (Laboratory 1). The experiment is classed as biochemical.
Experiment [4] has as its system N-acetyl-β-D-glucosaminidase (bovine kidney). As to the kind of experiment: Glycosidase inhibition, Table 7. The settings on record: 1 mg/mL aqueous solution added, 27 °C, run in water. Format: biochemical. Here is the method:
as §1

The target in experiment [5] is T1, α-D-mannosidase (Jack bean) (Canavalia ensiformis, UniProt C0HJB3).
T1 construct: purchased Sigma
T1 sequence (C0HJB3 1-981): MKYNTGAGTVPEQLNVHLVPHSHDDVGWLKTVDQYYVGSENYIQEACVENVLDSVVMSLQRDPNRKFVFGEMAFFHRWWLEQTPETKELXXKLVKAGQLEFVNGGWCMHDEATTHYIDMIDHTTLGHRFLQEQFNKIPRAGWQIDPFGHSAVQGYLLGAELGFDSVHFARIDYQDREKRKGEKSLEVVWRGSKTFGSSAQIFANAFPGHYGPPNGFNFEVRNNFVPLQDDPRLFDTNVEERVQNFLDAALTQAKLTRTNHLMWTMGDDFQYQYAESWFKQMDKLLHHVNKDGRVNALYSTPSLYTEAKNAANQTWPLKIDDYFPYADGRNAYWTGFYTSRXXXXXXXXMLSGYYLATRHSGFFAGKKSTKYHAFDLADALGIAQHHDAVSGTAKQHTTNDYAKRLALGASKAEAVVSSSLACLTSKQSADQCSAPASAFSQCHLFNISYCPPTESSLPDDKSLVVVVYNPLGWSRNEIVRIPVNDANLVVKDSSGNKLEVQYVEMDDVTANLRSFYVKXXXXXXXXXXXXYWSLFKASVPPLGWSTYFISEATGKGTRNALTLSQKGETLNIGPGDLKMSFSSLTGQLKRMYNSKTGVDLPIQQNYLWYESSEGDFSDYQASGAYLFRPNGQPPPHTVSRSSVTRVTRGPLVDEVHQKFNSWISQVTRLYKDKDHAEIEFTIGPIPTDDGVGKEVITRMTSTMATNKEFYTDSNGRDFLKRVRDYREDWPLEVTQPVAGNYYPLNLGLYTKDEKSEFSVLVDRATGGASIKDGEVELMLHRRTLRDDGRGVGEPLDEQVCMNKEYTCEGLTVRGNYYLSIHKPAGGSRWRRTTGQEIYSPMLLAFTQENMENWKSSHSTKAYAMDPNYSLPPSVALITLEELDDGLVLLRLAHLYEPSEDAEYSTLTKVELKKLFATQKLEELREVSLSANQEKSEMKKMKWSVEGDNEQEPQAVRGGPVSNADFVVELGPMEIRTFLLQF
Briefly: Glycosidase inhibition, Table 7. Format: biochemical. As to conditions: 1 mg/mL aqueous solution added, 27 °C, run in water; for inhibition at 1000 µg/mL (stock): read-out: α-D-Mannosidase Jack Bean, percentage inhibition. How it is done:
as §1

For experiment [6], the system named is α-D-glucosidase (Bacillus). Briefly: Glycosidase inhibition, Table 7. The experiment is classed as biochemical. As to conditions: 1 mg/mL aqueous solution added, 27 °C, run in water. Here is the method:
as §1

For experiment [7], the system named is panel of eight glycosidases. Briefly: Glycosidase inhibition, whole panel of Table 7. Format: biochemical. The settings on record: 1 mg/mL aqueous solution added. Here is the method: as §1

Chain of α-D-glucosidase (rice) (Q653V7 34-885): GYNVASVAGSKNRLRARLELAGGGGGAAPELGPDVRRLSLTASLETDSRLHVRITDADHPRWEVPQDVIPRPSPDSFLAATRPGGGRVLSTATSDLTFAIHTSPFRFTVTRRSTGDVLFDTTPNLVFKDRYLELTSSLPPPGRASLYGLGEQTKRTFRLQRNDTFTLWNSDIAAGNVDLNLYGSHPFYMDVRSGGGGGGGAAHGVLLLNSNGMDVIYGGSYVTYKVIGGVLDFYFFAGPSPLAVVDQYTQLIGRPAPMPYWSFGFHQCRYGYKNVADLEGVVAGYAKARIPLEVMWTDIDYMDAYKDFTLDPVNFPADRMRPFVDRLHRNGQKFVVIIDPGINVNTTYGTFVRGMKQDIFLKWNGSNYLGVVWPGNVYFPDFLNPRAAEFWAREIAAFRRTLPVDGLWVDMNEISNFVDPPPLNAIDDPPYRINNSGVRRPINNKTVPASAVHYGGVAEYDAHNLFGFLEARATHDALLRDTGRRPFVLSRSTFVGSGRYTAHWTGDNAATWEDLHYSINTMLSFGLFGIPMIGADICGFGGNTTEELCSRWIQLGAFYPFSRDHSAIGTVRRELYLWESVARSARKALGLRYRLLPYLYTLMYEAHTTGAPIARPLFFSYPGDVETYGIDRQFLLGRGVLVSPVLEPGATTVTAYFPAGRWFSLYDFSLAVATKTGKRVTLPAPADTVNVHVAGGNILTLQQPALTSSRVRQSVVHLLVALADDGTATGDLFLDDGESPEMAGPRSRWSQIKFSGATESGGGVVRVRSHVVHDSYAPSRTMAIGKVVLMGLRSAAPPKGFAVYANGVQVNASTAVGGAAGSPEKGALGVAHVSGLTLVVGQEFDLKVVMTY

As a reminder, the inhibition is the relative decrease from the control value, in per cent. For `OC[C@H](O)[C@@H]1[C@H](O)[C@H](O)CN1Cc1ccc(B(O)O)cc1` [para 8, N-(4-Methylphenylboronic acid)-1,4-dideoxy-1,4-imino-L-gulitol], the “N-Acetyl-β-D-hexosaminidase Rat Intestine, percentage inhibition” value in experiment [1] turned out to be 2.6%. Moreover, the inhibition at 25 µM in experiment [2] was 1 ± 2%; in experiment [3], 11 ± 1%. Moreover, the GI50 in experiment [2] and in experiment [3] was greater than 50 µM in each case. For the same compound, the inhibition at 1000 µM at α-D-glucosidase (rice) turned out to be 8.2%.
As to `OB(O)c1ccc(CN2CC(O)C3OC(O)C(O)C32)cc1` [para 7, N-(4-Methylphenylboronic acid)-3,6-dideoxy-3,6-imino-D-gulofuranose], the “N-Acetyl-β-D-hexosaminidase Rat Intestine, percentage inhibition” value in experiment [1] is 4.4%. Moreover, in experiment [2], the inhibition at 25 µM was determined as 9 ± 6% and the GI50 is greater than 50 µM. In experiment [3], the inhibition at 25 µM came to 14% and the GI50 was greater than 50 µM. In addition, the inhibition at 1000 µM against α-D-glucosidase (rice) amounted to 0%.
`OC1O[C@@H]2[C@H]([C@H]1O)N(Cc1ccccc1)C[C@H]2O` (stereo partly drawn) [Compound 4, N-Benzyl-3,6-dideoxy-3,6-imino-D-gulofuranose]: the “N-Acetyl-β-D-glucosaminidase Bovine Kidney, percentage inhibition” value in experiment [4] was −9.1%. In addition, the inhibition at 1000 µg/mL (stock) in experiment [5] was -12.1%. Further, the “α-D-Glucosidase Bacillus, percentage inhibition” value in experiment [6] is −37.9%. The inhibition at 25 µM in experiment [2] and in experiment [3] was 8% each time. The inhibition at 1000 µM against α-D-glucosidase (rice) was 1.3%.
For the compound `CC1(C)O[C@H]2O[C@H]3[C@@H]([C@H]2O1)N(Cc1ccc(B2OC(C)(C)C(C)(C)O2)cc1)C[C@H]3O` [para 6, N-(4-Methylphenylboronic acid pinacol ester)-3,6-dideoxy-3,6-imino-1,2-O-isopropylidene-α-D-gulofuranose], the results for the inhibition at 25 µM in experiment [2] and in experiment [3] were 10% and 9%, respectively. At α-D-glucosidase (rice), the inhibition at 100 µM stood at 0%.
In the case of “borocaptate sodium [BSH, reference compound]”, the “N-Acetyl-β-D-glucosaminidase Bovine Kidney, percentage inhibition” value in experiment [4] was 37.1%. In experiment [5], the “α-D-Mannosidase Jack Bean, percentage inhibition” value is −18.7%. Also, the “α-D-Glucosidase Bacillus, percentage inhibition” value in experiment [6] is reported as 48.1%. In addition, the “inhibitions across the panel (Table 7)” value in experiment [7] is recorded as 31.6–65.9%. Besides, the “H460 Lung Carcinoma, Percentage (%) Cell Growth Inhibition in response to 25 µM of Drug” value in experiment [2] is recorded as “* 8 ± 2%”. The “MIA-Pa-Ca2 Pancreatic Carcinoma, Percentage (%) Cell Growth Inhibition in response to 25 µM of Drug” value in experiment [3] is reported as “* 2 ± 6%”. In addition, the “α-D-Glucosidase Rice, inhibition % at 1000 μM” value at α-D-glucosidase (rice) (1000 μM) was “^a NI ^b (0%)”.
Consider `N[C@@H](Cc1ccc(B(O)O)cc1)C(=O)O` [^10B-BPA, reference compound], for which the “N-Acetyl-β-D-glucosaminidase Bovine Kidney, percentage inhibition” value in experiment [4] was 6.3%. Further, the “α-D-Mannosidase Jack Bean, percentage inhibition” value in experiment [5] is on record as −0.7%. Moreover, in experiment [6], the “α-D-Glucosidase Bacillus, percentage inhibition” value was determined as 19.5%. The “inhibitions across the panel (Table 7)” value in experiment [7] is reported as “below 30%”. Moreover, the “H460 Lung Carcinoma, Percentage (%) Cell Growth Inhibition in response to 25 µM of Drug” value in experiment [2] is “* 8 ± 5%”. Moreover, the “MIA-Pa-Ca2 Pancreatic Carcinoma, Percentage (%) Cell Growth Inhibition in response to 25 µM of Drug” value in experiment [3] is “* 11 ± 3%”. Moreover, the “α-D-Glucosidase Rice, inhibition % at 100 μM” value on α-D-glucosidase (rice) (100 μM) is “^c NI ^d (0%)”.
Turning to `CC1(C)O[C@H]2O[C@H]3[C@@H]([C@H]2O1)N(Cc1ccccc1)C[C@H]3O` [Compound 3, N-Benzyl-3,6-dideoxy-3,6-imino-1,2-O-isopropylidene-α-D-gulofuranose], the “N-Acetyl-β-D-glucosaminidase Bovine Kidney, percentage inhibition” value in experiment [4] is reported as −0.1%. For the same compound, in experiment [5], the inhibition at 1000 µg/mL (stock) was -30.6%. The “α-D-Glucosidase Bacillus, percentage inhibition” value in experiment [6] was −43.2%. Also, the inhibition at 25 µM is 9% in experiment [2] and 7% in experiment [3]. The inhibition at 100 µM against α-D-glucosidase (rice) was found to be 0%.
Turning to `OC[C@H](O)[C@@H]1[C@H](O)[C@H](O)CN1Cc1ccccc1` [Compound 5, N-Benzyl-1,4-dideoxy-1,4-imino-L-gulitol], the “N-Acetyl-β-D-hexosaminidase Rat Intestine, percentage inhibition” value in experiment [1] is −1.5%. The inhibition at 25 µM in experiment [2] came out at 0%; in experiment [3], 6 ± 1%. Besides, the GI50 in experiment [2] and in experiment [3] was greater than 50 µM each time. In addition, the inhibition at 100 µM on α-D-glucosidase (rice) came out at 0%.
In the case of `N[C@@H](Cc1ccc(B(O)O)cc1)C(=O)O` [BPA, 4-borono-L-phenylalanine, reference compound], the “N-Acetyl-β-D-glucosaminidase Bovine Kidney, percentage inhibition” value in experiment [4] came to 6.7%. Further, the inhibition at 1000 µg/mL (stock) in experiment [5] came to 0.6%. Also, in experiment [6], the “α-D-Glucosidase Bacillus, percentage inhibition” value is listed as 19.9%. For the same compound, the “inhibitions across the panel (Table 7)” value in experiment [7] is “below 30%”. Moreover, the values for the inhibition at 25 µM in experiment [2] and in experiment [3] were 7% and 3%, respectively.
